Article PMC7822874, “Chemoprotective antimalarials identified through quantitative high-throughput screening of Plasmodium blood and liver stage parasites” (Scientific Reports, 2021)
Read-outs that look alike come from different tables or passages of the source. Values belong to the compound of their own block, whether it stands above or below them.

How the values were obtained:
[1] = biological target: Firefly luciferase (Fluc, EC 1.13.12.7) (Photinus pyralis, UniProt P08659); experiment: biochemical; design: single determination (the paper says generally: 'qHTS assays were performed in a single replicate with a 7- to 11-point dose response format'; it is not stated for this counterscreen itself)
HepG2 = conditions: human, hepg2 cells, 48 h
in vitro [2] = conditions: human, hepg2 cells
in vitro [3] = conditions: human, HepG2 cells; n = 1
in vitro [4] = conditions: human, HepG2-A16-CD81EGFP cells, uninfected
[5] = tested on: Plasmodium falciparum Dd2 asexual blood stage parasites; experiment: microbe, parasite or virus in culture; design: species or system Plasmodium falciparum Dd2 in human erythrocytes; single determination (one 11-point concentration-response curve); conditions: Plasmodium falciparum, DD2, Erythrocyte, 72 h; read-out: AC50
Aqueous solubility = format: physicochemical; conditions: aqueous media
Protocol: (§1) Pharmacokinetic modeling experiments, parallel artificial membrane permeability assay (PAMPA), solubility, and rat liver microsome stability assessment were performed on all synthetic compounds, as previously described[73]–[75].

[6] = tested on: P. falciparum Dd2 Cytb A122D; experiment: SYBR Green ABS proliferation assay, NCGC00473217 selected clone F12; format: cell-based, Plasmodium falciparum; conditions: Plasmodium falciparum, DD2, NCGC00473217 selected clone F12; read-out: AC50 [μM], Cytb A122D (converted)
Method in brief: (§2)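 Proliferation of cytb-mutant Dd2 clones was measured by SYBR Green-I fluorescence at 72 h, normalized to controls.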

[7] = tested on: P. falciparum Dd2 (clone B2) asexual blood stage parasites; experiment: P. falciparum Dd2 asexual blood stage SYBR Green-I 72 h proliferation assay (qHTS); format: cell-based, Plasmodium falciparum; conditions: Plasmodium falciparum, DD2, 72 h, SYBR Green 72 h
[8] = tested on: P. falciparum Dd2 Cytb V259L; experiment: SYBR Green ABS proliferation assay, NCGC00473217 selected clone F06; format: cell-based, Plasmodium falciparum; conditions: Plasmodium falciparum
Method in brief: as §2

[9] = Rat liver microsomal stability (RLMS); conditions: rat, rat liver microsomes
Protocol: as §1

[10] = tested on: P. falciparum Dd2 Cytb F123L; experiment: SYBR Green ABS proliferation assay, NCGC00473217 selected clone G08; format: cell-based, Plasmodium falciparum; conditions: Plasmodium falciparum, DD2, NCGC00473217 selected clone G08; highest concentration 29 µM; read-out: AC50 [μM], Cytb F123L (converted)
Method in brief: as §2

[11] = tested on: P. falciparum Dd2 Cytb G131S; experiment: SYBR Green ABS proliferation assay, NCGC00374598 selected clone C11; format: cell-based, Plasmodium falciparum; conditions: Plasmodium falciparum
Method in brief: as §2

[12] = WT Dd2-B2, read-out: AC50 Log[M] ± SD, Dd2-B2 (parental line) (converted)
[13] = approximate value in μM, read-out: AC50 [μM], Dd2-B2 (parental line) (converted)
[14] = DD2, NCGC00473217 selected clone F06, read-out: AC50 [μM], Cytb V259L (converted)
[15] = DD2, NCGC00374598 selected clone C11, read-out: AC50 [μM], Cytb G131S (converted)
[16] = DD2, NCGC00374598 selected clone, read-out: AC50 Log[M] ± SD, Cytb G131S (converted)

Sequence of Firefly luciferase (Fluc, EC 1.13.12.7) (P08659 whole entry): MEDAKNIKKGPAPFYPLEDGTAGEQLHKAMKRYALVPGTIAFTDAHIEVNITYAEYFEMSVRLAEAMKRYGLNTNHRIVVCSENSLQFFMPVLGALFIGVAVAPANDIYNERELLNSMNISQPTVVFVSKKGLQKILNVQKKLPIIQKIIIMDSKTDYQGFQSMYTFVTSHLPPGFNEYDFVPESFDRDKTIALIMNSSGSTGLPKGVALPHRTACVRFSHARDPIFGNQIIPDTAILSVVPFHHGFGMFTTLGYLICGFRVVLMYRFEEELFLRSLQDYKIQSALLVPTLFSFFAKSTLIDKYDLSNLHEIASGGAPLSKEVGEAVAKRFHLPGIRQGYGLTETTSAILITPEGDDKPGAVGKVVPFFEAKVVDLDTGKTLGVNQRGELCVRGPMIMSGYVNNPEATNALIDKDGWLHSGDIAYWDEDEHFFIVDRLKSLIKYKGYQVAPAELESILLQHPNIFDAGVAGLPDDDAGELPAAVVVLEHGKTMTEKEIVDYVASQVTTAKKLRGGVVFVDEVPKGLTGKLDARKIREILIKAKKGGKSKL

AC50 [1]: 0.0136 µM
Compound: C/C(=N\OCc1cccc(C(=O)O)c1)c1ccc(Cl)cc1 [MLS000850591-01]

AC50 [1]: 8.57 µM
Compound: COc1ccc(C(=O)C=CNc2cc(C)ccn2)cc1 [MLS001043227-01]

AC50 [1]: 10.8 µM
Log AC50 (M) (HepG2): -4.8143 M
Compound: NC(=NOC(=O)c1cccc(F)c1)c1ccccn1 [MLS001075504-01]
CC50 at 48 h (in vitro [2]): 15.3 µM

AC50 [1]: 0.0171 µM
Compound: COc1cc(SC)ccc1C(=O)Nc1nc2ccccc2[nH]1 [MLS001172173-01]
CC50 at 48 h (in vitro [3]): 19.3 µM

Compound: N=c1n(N)c2ccccc2n1CC(=O)c1ccc(Br)cc1 [MLS001183984-01]
AC50 [1]: 12.1 µM
viability at 66 h (in vitro [4]): 103%

AC50 [1]: 4.82 µM
Compound: O=C(NC1CCCCC1)c1[nH]nc2c1CCCCC2 [MLS002178094-01]

AC50 [1]: 15.2 µM
Compound: CCc1ccc2oc(-c3cccc(NC(=O)c4ccc(-c5cccc([N+](=O)[O-])c5)o4)c3)nc2c1 [NCGC00102150-01]

AC50 [1]: 4.3 µM
Compound: Cc1ccc(C(=O)NCCn2c(C)cc3ccccc32)cc1C [NCGC00107199-01]

AC50 [1]: 17.1 µM
Log AC50 (M) (HepG2): -4.3643 M
Compound: Cc1cc(N2CCN(C)CC2)nc2ccc(NC(=O)Nc3ccccc3Br)cc12 [NCGC00126483-01]
CC50 at 48 h (in vitro [2]): 43.2 µM

AC50 [1]: 0.0341 µM
Compound: Cc1cn2c(=O)cc(COC(=O)c3cccc(NC(=O)COc4ccccc4Cl)c3)nc2s1 [NCGC00130619-01]

AC50 [1]: 4.82 µM
Compound: CCc1ccc(C2=CC(c3cccc(C)c3)n3c(nc4ccccc43)N2)cc1 (stereo not drawn) [NCGC00140745-01]
AC50 [5]: 15 µM

AC50 [1]: 0.0136 µM
Compound: Nc1ncnc2c1ncn2[C@@H]1O[C@H](CN[S+](=O)([O-])NC(=O)c2cccc(-c3noc(-c4ccccc4F)n3)c2)[C@@H](O)[C@H]1O [NCGC00183809-01]
CC50 at 48 h (in vitro [3]): 1.72 µM

AC50 [1]: 11.1 µM
Compound: O=C1c2cnc(-c3cc4ccccc4o3)nc2OCCN1Cc1ccccc1 [NCGC00413600-01]

AC50 [1]: 0.622 µM
Compound: O=C1c2cnc(-c3cc4ccccc4o3)nc2OCCN1c1ccccc1 [NCGC00413607-01]
CC50 at 48 h (in vitro [3]): 8.86 µM

AC50 [1]: 7.64 µM
Compound: COc1ccc(NC(=O)c2cccc3c2CCN3C(=O)Nc2ccc(F)cc2)c(C)c1 [NCGC00430188-01]

AC50 [1]: 21.5 µM
Compound: O=C(NCCC1=CCCCC1)C1CCN(C(=O)c2ncn3c2COC(c2ccccc2)C3)CC1 (stereo not drawn) [NCGC00449771-01]

AC50 [1]: 21.5 µM
Compound: CCOc1ccc(NC(=O)c2ccc3c(c2)N(C)C2CCCN2C3=O)cc1 (stereo not drawn) [NCGC00452128-01]

Compound: CCCN1C(CC(C)C)=NS(=O)(=O)c2cc(NC(=O)c3ccc(F)cc3)ccc21 [NCGC00521139]
solubility (Aqueous solubility): < 1 µg/mL
AC50 [6]: > 29 µM
AC50 [7, 12]: 5.25e-07 M
AC50 [7, 13]: 5.23e-07 M
AC50 [8, 14]: > 29 µM
half-life [9]: 6.3 min
AC50 [10]: > 29 µM
AC50 [11, 15]: 0.355 µM
AC50 [11, 16]: 0.355 µM

Compound: CCCN1C(CC(C)C)=NS(=O)(=O)c2cc(NC(=O)c3ccc(Cl)s3)ccc21 [NCGC00523535]
solubility (Aqueous solubility): < 1 µg/mL
AC50 [6]: > 29 µM
AC50 [7, 12]: 1.51e-06 M
AC50 [7, 13]: 1.53e-06 M
AC50 [8, 14]: 7.1 µM
AC50 ([8]; DD2, NCGC00473217 selected clone, read-out: AC50 Log[M] ± SD, Cytb V259L (converted)): 7.08 µM
half-life [9]: 3.8 min
AC50 [10]: > 29 µM
AC50 [11, 15]: 1 µM
AC50 [11, 16]: 1 µM

Compound: CCCN1C(CC(C)C)=NS(=O)(=O)c2cc(NC(=O)c3ccc(Cl)cc3)ccc21 [NCGC00531775]
solubility (Aqueous solubility): < 1 µg/mL
AC50 [6]: > 29 µM
AC50 [7, 12]: 1.26e-06 M
AC50 [7, 13]: 1.26e-06 M
AC50 [8, 14]: > 29 µM
half-life [9]: 4.1 min
AC50 [10]: > 29 µM
AC50 [11, 15]: 0.2 µM
AC50 [11, 16]: 0.2 µM
